Several values for one entry are separate records, joined by “and”; a condition that tells them apart may be missing. Equal values may be shown once.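 Values below derive from 48-hour exposures of cells grown in 96-well plates, with endpoints linearly interpolated between the two concentrations bracketing the appropriate inhibition level. GI50: concentration for 50% inhibition of growth. TGI is the concentration that stops growth completely.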
What was measured:
Assay in all cases: NCI-60 cell line screen, 48 h
HL-60(TB) leukemia = tested on: HL-60(TB) leukemia
ACHN renal = tested on: ACHN renal
LOX IMVI melanoma = tested on: LOX IMVI melanoma
MDA-MB-435 = tested on: MDA-MB-435
TK-10 renal = tested on: TK-10 renal
SK-MEL-2 melanoma = tested on: SK-MEL-2 melanoma
NCI/ADR-RES ovarian = tested on: NCI/ADR-RES ovarian
MALME-3M melanoma = tested on: MALME-3M melanoma
UACC-257 melanoma = tested on: UACC-257 melanoma
MOLT-4 leukemia = tested on: MOLT-4 leukemia

Compound	TGI (HL-60(TB) leukemia)	TGI (ACHN renal)	TGI (LOX IMVI melanoma)	TGI (MDA-MB-435)	TGI (TK-10 renal)	TGI (SK-MEL-2 melanoma)	TGI (NCI/ADR-RES ovarian)	TGI (MALME-3M melanoma)	TGI (UACC-257 melanoma)	TGI (MOLT-4 leukemia)	GI50 (HL-60(TB) leukemia)	GI50 (ACHN renal)	GI50 (LOX IMVI melanoma)	GI50 (MDA-MB-435)	GI50 (TK-10 renal)	GI50 (SK-MEL-2 melanoma)	GI50 (MALME-3M melanoma)	GI50 (UACC-257 melanoma)	GI50 (MOLT-4 leukemia)	GI50 (NCI/ADR-RES ovarian)
O=C(O)C(Cc1cccs1)C(=O)O	> 100 µM	> 100 µM	> 100 µM	> 100 µM	> 100 µM	> 100 µM	> 100 µM	> 100 µM	> 100 µM	–	–	–	–	–	–	–	–	–	–	–
CN(C)Cc1cc(C(=O)O)cc(CN(C)C)c1O	> 100 µM	> 100 µM	> 100 µM	> 100 µM	> 100 µM	> 100 µM	> 100 µM	> 100 µM	> 100 µM	–	–	–	–	–	–	–	–	–	–	–
CC(NCCS(=O)(=O)O)C(=O)O (configuration not stated)	> 100 µM	–	> 100 µM	–	–	> 100 µM	> 100 µM	> 100 µM	> 100 µM	> 100 µM	–	–	–	–	–	–	–	–	–	–
COc1ccc(-c2cn3ccnc3c(-c3ccc4ncn(C5CCCCC5)c4c3)n2)cc1	5.05 µM	> 100 µM	> 100 µM	> 100 µM	68.9 µM	> 100 µM	–	> 100 µM	> 100 µM	> 100 µM	1.06 µM	0.692 µM	0.74 µM	0.312 µM	2.99 µM	0.944 µM	43.1 µM	> 100 µM	2.66 µM	–
CCCCCCCCCC[C@@H](O)[C@@H]1CC[C@@H]([C@@H]2CC[C@@H]([C@@H](O)CCCCCCCCCCC(O)CC3=CC(C)OC3=O)O2)O1 (some centres not stated)	1.85 µM	> 10 µM	> 10 µM	–	> 10 µM	–	> 10 µM	> 10 µM	> 10 µM	> 10 µM	–	–	–	–	–	–	–	–	–	–
Cc1c2cc[n+](C)cc2c(C)c2c1[nH]c1ccccc12	66.9 µM and 63.5 µM	> 100 µM	48.3 µM and 27.4 µM	> 100 µM	> 100 µM	2.85 µM and 3.5 µM	> 100 µM	3.24 µM and 4.03 µM	37.5 µM and 43.2 µM	56.6 µM and 30.2 µM	–	–	–	–	–	–	–	–	–	48 µM and 15 µM
C=C[C@H]1CN2CC[C@H]1C[C@@H]2[C@@H](O)c1ccnc2ccccc12	> 100 µM	> 100 µM	> 100 µM	> 100 µM	> 100 µM	> 100 µM	> 100 µM	> 100 µM	> 100 µM	> 100 µM	–	–	–	–	–	–	–	–	–	–
NCCCCCCNc1cc(-c2cccc(OC(F)(F)F)c2)nc2ccc(N3CCCC3)cc12	4 µM	3.11 µM	–	3.01 µM	3.36 µM	–	–	–	–	3.59 µM	2.01 µM	1.74 µM	–	1.64 µM	1.88 µM	–	–	–	1.6 µM	–
